Measured values published in PMC6010102, “N-thioalkylcarbazoles derivatives as new anti-proliferative agents: synthesis, characterisation and molecular mechanism evaluation” (Journal of Enzyme Inhibition and Medicinal Chemistry, 2018).

Legend:
[1] = system: MCF-7 human breast cancer cells; experiment: MTT cell viability, MCF-7; type: cell-based; settings: MCF7, 72 h exposure, mean ± SD, read-out: Antiproliferative activity IC50, MCF-7
Description: (§1) The six cell lines used in this work were purchased from American Type Culture Collection (ATCC, Manassas, VA). MCF-7 human breast cancer cells, oestrogen receptor (ER) positives, were maintained in Dulbecco’s Modified Eagle’s Medium/Nutrient Mixture F-12 Ham (DMEM/F12), supplemented with 5% foetal bovine serum (FBS) and 100 U/ml penicillin/streptomycin, as previously described. MDA-MB-231, human breast cancer cells, oestrogen receptor (ER) negative, were maintained in Dulbecco’s Modified Eagle’s Medium/Nutrient Mixture F-12 Ham (DMEM/F12), supplemented with 5% Newborn Calf Serum (NCS) and 100 U/ml penicillin/streptomycin. HeLa human epithelial cervix carcinoma cells, oestrogen receptor (ER) negative, and ISHIKAWA human endometrial adenocarcinoma cell, oestrogen receptor positive, were maintained in minimum essential medium (MEM), supplemented with 10% FBS, 100 U/ml penicillin/streptomycin and 1% non-essential amino acid. 3T3-L1 cells line of murine fibroblasts of embryonic type, were maintained in DMEM, supplemented with 10% NCS and 100 U/ml penicillin/streptomycin. MCF-10A human mammary epithelial cells were cultured in DMEM/F12 medium, supplemented with 5% horse serum (HS) (Eurobio, Les Ullis, Cedex, France), 100 U/ml penicillin/streptomycin, […] hydrocortisone, 20 ng/ml hEGF (human epidermal growth factor), 10 μg/ml insulin and […] cholera enterotoxin (Sigma-Aldrich, Milano, Italy). Cells were maintained at 37 °C in a humidified atmosphere of 95% air and 5% CO2 and periodically screened for contamination.
(§2) MDA-MB-231, MCF-7, HeLa and ISHIKAWA cells were grown in complete medium and, before being treated, they were serum deprived for 24 h, to allow cell cycle synchronisation. Then cells were grown in phenol red-free medium supplemented with 1% DCC (destran-coated charcoal treated) FBS, then treated with increasing concentrations (0.1, 1, 10, 20, 40, 100 µM) of each compound for 72 h. Compounds were dissolved in dimethylsulphoxide (DMSO) (Sigma, St. Louis, MO) and diluted in each cell medium. Untreated cells, used as a control, were added with DMSO alone (final concentration 0.1%). Cell viability was assessed using the 3-[4,5-dimethylthiazol-2-yl]-2,5-diphenyltetrazolium bromide reagent (MTT), according to the protocol from manufacturer (Sigma-Aldrich, Milan, Italy), as previously described[37] ^, [38]. For each sample, the mean absorbance, measured at 570 nm, was expressed as a percentage of the control and plotted versus drug concentration to determine for each cell line the IC50 values (namely, drugs concentrations able to reduce cell viability of 50% with respect to the control), using GraphPad Prism 5 Software (GraphPad Inc., San Diego, CA)[39]. Each experiment was carried out in quadruplicate. Standard deviations (SD) were shown.

[2] = system: MCF-10A human mammary epithelial cells; experiment: MTT cell viability, MCF-10A; type: cell-based; settings: non-tumoural cells, 72 h exposure, mean ± SD, read-out: Antiproliferative activity IC50, MCF-10a
Description: as §1, §2

[3] = system: ISHIKAWA human endometrial adenocarcinoma cells; experiment: MTT cell viability, ISHIKAWA; type: cell-based; settings: 72 h exposure, mean ± SD, read-out: Antiproliferative activity IC50, ISHIKAWA
Description: as §1, §2

[4] = system: 3T3-L1 murine fibroblasts; experiment: MTT cell viability, 3T3-L1; type: cell-based; settings: Mus musculus, non-tumoural cells, 72 h exposure, mean ± SD, read-out: Antiproliferative activity IC50, 3T3-L1
Description: as §1, §2

[5] = system: HeLa human epithelial cervix carcinoma cells; experiment: MTT cell viability, HeLa; type: cell-based; settings: 72 h exposure, mean ± SD, read-out: Antiproliferative activity IC50, HeLa
Description: as §1, §2

[6] = system: MDA-MB-231 human breast cancer cells; experiment: MTT cell viability, MDA-MB-231; type: cell-based; settings: 72 h exposure, mean ± SD, read-out: Antiproliferative activity IC50, MDA-MB-231
Description: as §1, §2

hTopoII = hTopoII (Homo sapiens, UniProt P11388); experiment: Human topoisomerase II decatenation assay; type: biochemical; settings: 50 µM, reference molecule
Chain of hTopoII (P11388 whole entry): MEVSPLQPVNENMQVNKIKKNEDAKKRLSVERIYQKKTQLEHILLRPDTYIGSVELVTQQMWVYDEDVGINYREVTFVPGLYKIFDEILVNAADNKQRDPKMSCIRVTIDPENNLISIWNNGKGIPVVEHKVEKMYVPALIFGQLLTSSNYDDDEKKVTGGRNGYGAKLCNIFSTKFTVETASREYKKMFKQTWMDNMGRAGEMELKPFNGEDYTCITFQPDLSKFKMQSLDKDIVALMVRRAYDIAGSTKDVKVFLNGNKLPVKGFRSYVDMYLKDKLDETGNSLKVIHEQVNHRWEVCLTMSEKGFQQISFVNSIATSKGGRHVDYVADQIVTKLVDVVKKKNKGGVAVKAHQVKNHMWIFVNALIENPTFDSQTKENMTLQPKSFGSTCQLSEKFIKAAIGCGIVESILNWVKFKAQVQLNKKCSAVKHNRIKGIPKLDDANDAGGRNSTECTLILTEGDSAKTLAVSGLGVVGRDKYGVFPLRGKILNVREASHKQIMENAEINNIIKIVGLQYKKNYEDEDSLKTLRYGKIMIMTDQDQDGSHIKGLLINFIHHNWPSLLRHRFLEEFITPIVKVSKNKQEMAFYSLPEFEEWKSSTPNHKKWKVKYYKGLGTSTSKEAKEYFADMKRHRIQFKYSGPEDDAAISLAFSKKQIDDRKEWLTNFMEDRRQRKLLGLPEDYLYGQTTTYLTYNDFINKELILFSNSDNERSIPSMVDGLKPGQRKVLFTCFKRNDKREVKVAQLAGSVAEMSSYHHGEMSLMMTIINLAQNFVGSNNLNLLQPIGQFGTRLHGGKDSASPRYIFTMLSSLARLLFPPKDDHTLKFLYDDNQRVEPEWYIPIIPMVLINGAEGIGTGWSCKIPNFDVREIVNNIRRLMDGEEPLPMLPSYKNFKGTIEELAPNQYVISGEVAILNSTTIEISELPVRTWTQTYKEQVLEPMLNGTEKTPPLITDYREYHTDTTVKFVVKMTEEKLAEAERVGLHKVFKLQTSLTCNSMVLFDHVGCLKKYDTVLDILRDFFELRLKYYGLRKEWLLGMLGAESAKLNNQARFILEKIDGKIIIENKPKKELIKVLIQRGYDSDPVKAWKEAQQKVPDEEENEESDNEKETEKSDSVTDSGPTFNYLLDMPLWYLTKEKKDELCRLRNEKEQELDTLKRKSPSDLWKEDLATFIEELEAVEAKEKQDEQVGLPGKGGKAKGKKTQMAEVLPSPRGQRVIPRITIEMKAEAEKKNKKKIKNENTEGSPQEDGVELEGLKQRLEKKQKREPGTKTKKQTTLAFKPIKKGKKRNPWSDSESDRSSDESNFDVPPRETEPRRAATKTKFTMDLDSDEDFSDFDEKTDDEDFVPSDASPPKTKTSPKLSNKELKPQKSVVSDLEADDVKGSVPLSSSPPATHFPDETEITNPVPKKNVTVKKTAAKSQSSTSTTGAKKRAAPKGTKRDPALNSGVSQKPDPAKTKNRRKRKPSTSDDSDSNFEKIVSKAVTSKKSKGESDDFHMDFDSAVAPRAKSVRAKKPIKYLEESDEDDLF
Method: Human topoisomerase II decatenation assay: hTopoII decatenation assays were performed as reported in Iacopetta et al.[8].
Figure 2. hTopoII inhibition assay. kDNA was incubated with human Topoisomerase II in the absence (lane C, vehicle DMSO) or presence of compound 5c (lane 5c) or Ellipticine (lane E) at 10 and 50 µM, respectively. Lane K, kinetoplast DNA (kDNA).

| IC50 [1] [µM] | IC50 [3] [µM] | IC50 [5] [µM] | IC50 [6] [µM] | SMILES | IC50 [2] [µM] | IC50 [4] [µM] | hTopoII inhibition (kDNA decatenation) (hTopoII) |
| --- | --- | --- | --- | --- | --- | --- | --- |
| 50.4 ± 0.96 | 19.2 ± 1.13 | 12.8 ± 0.62 | 39.9 ± 0.52 | SCCCCCCCn1c2ccccc2c2ccccc21 [5a, 7-(9H-Carbazol-9-yl)heptane-1-thiol] | > 100 | > 100 | – |
| > 100 | > 100 | > 100 | > 100 | Cc1ccc2c(c1)c1c(C)ccc(C)c1n2CCCCCCCS [5b, 7-(1,4,6-Trimethyl-9H-carbazol-9-yl)-heptane-1-thiol] | > 100 | > 100 | – |
| > 100 | > 100 | > 100 | > 100 | SCCCCCCCCn1c2ccccc2c2ccccc21 [6a, 8-(9H-Carbazol-9-yl)octane-1-thiol] | > 100 | > 100 | – |
| > 100 | > 100 | > 100 | > 100 | Cc1ccc2c(c1)c1c(C)ccc(C)c1n2CCCCCCCCS [6b, 8-(1,4,6-Trimethyl-9H-carbazol-9-yl)-octane-1-thiol] | > 100 | > 100 | – |
| > 100 | > 100 | > 100 | > 100 | Cc1ccc(C)c2c1c1cc(Br)ccc1n2CCCCCCCCS [6c, 8-(6-Bromo-1,4-dimethyl-9H-carbazol-9-yl)-octane-1-thiol] | > 100 | > 100 | – |
| > 100 | > 100 | > 100 | > 100 | SCCCCCCCCCn1c2ccccc2c2ccccc21 [7a, 9-(9H-Carbazol-9-yl)nonane-1-thiol] | > 100 | > 100 | – |
| > 100 | > 100 | > 100 | > 100 | Cc1ccc2c(c1)c1c(C)ccc(C)c1n2CCCCCCCCCS [7b, 9-(1,4,6-Trimethyl-9H-carbazol-9-yl)-nonane-1-thiol] | > 100 | > 100 | – |
| > 100 | > 100 | > 100 | > 100 | Cc1ccc(C)c2c1c1cc(Br)ccc1n2CCCCCCCCCS [7c, 9-(6-Bromo-1,4-dimethyl-9H-carbazol-9-yl)-nonane-1-thiol] | > 100 | > 100 | – |

| SMILES | IC50 [1] [µM] | IC50 [3] [µM] | IC50 [5] [µM] | IC50 [6] [µM] | IC50 [2] [µM] | IC50 [4] [µM] | hTopoII inhibition (kDNA decatenation) (hTopoII) |
| --- | --- | --- | --- | --- | --- | --- | --- |
| Cc1c2ccncc2c(C)c2c1[nH]c1ccccc12 [Ellipticine, reference compound] | 1.25 ± 0.3 | 1.7 ± 0.8 | 1.05 ± 0.5 | 1.85 ± 0.15 | 1.2 ± 0.2 | 0.98 ± 0.7 | complete inhibition |
